What was measured:
[1] = system: NMDA receptor; assay: MEA recording with pharmacological intervention (D-APV); format: cell-based, human; conditions: D-APV 50 μM (FIG. 8g legend), Hase-1000 samples at week 4, vs DMSO
Method: MEA recording of 3D-bioprinted mini-brains was performed from week 1 to week 4 after differentiation (day 10 to day 31 after digestion). The samples containing SNaPs were plated on Geltrex-coated 12-well MEA plates (Axion Biosystems, USA) in the differentiation medium. The samples were fed 2-3 times a week with partial medium change. Neuronal activities were measured every week using the Maestro 12-well MEA plate system (Axion Biosystems) for 5 min. After 4 weeks of culture in MEA plate, synaptic contents were tested using pharmacological inhibitors of neurotransmitter receptors. […] The samples were incubated for 5-10 min, and neuronal activities were assessed again for 5 min. All the MEA data were analyzed using the Axion Integrated Studio 2.4.2 and the Neural Metric Tool (Axion Biosystems).

[2] = system: AMPA receptor; assay: MEA recording with pharmacological intervention (NBQX); format: cell-based, human; conditions: NBQX 10 μM, Hase-1000 samples at week 4, vs DMSO
Method: MEA recording of 3D-bioprinted mini-brains was performed from week 1 to week 4 after differentiation (day 10 to day 31 after digestion). The samples containing SNaPs were plated on Geltrex-coated 12-well MEA plates (Axion Biosystems, USA) in the differentiation medium. The samples were fed 2-3 times a week with partial medium change. Neuronal activities were measured every week using the Maestro 12-well MEA plate system (Axion Biosystems) for 5 min. After 4 weeks of culture in MEA plate, synaptic contents were tested using pharmacological inhibitors of neurotransmitter receptors. Specifically, neuronal activity was measured for 5 min by adding DMSO control before adding 10 μM of NBQX (Abcam) or 10 μM of D-APV (Abcam). The samples were incubated for 5-10 min, and neuronal activities were assessed again for 5 min. All the MEA data were analyzed using the Axion Integrated Studio 2.4.2 and the Neural Metric Tool (Axion Biosystems).

N[C@H](CCCP(=O)(O)O)C(=O)O [D-APV, D-2-amino-5-phosphonovaleric acid]
burst frequency [1]: significantly reduced | firing [1]: significantly reduced

NS(=O)(=O)c1cccc2c1c([N+](=O)[O-])cc1nc(O)c(O)nc12 [NBQX, 2,3-dihydroxy-6-nitro-7-sulfamoyl-benzo(F)quinoxaline]
burst frequency [2]: significantly reduced | mean firing rate [2]: significantly reduced

From patent US20260071187A1, “MOLECULARLY CLEAVABLE BIOINK FORMULATION” (THE BRIGHAM AND WOMEN'S HOSPITAL, INC., priority 2022, published 2026)
